Test results from ChEMBL document CHEMBL1201862, “PubChem BioAssay data set” (2004).
The source made the active and inactive calls.

Experiments:
[1] = Luminescence Cell-Based Dose Confirmation HTS to Identify Activators of 5'UTR Stem-Loop Driven Alpha-Synuclein mRNA Translation in H4 Neuroglioblastoma Cells. [Related pubchem assays: 1829 (Project Summary), 1814 (Primary HTS)]; format: functional
[2] = test system: H4; assay: Luminescence Cell-Based Dose Response HTS to Identify Activators of 5'UTR Stem-Loop Driven Prion Protein mRNA Translation in H4 Neuroglioblastoma Cells. [Related pubchem assays: 1829 (Project Summary), 1814 (Primary HTS)]; format: functional; conditions: Homo sapiens
[3] = biological target: T1, Sentrin-specific protease 6 (Homo sapiens, UniProt Q9GZR1); format: functional;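 also: Luminescence-based dose-response confirmatory assay of SENP6 inhibition, following up an ultra-high-throughput screen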
T1 sequence (Q9GZR1 whole entry): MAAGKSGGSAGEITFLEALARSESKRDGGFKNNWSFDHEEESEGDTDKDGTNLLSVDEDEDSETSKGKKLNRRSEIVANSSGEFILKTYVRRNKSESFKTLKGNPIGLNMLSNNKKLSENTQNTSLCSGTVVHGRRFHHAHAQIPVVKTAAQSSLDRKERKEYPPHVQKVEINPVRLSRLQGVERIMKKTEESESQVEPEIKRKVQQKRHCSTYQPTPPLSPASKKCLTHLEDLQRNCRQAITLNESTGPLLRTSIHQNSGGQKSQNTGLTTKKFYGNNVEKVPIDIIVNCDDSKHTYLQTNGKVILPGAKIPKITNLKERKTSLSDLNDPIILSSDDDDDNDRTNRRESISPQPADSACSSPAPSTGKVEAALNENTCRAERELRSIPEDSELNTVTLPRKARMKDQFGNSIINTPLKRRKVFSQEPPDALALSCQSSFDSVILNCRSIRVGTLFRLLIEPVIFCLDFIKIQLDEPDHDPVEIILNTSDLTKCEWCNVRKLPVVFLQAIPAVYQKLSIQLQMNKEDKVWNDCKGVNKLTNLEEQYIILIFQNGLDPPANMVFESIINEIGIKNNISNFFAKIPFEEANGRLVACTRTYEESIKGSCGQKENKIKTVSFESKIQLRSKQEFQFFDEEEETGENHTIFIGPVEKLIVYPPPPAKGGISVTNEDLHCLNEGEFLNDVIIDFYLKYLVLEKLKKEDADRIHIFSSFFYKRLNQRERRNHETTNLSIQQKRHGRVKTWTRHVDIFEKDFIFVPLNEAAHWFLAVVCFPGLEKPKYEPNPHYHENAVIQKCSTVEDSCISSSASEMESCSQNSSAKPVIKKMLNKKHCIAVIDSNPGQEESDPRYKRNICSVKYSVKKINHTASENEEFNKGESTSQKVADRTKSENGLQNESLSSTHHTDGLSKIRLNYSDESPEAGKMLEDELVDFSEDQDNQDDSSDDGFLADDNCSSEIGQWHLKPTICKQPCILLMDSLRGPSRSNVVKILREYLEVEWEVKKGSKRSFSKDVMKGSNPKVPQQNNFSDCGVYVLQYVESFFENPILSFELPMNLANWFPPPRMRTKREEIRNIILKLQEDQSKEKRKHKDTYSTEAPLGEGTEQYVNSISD

[4] = biological target: T2, Tyrosine-protein phosphatase non-receptor type 22 (Homo sapiens, UniProt Q9Y2R2); assay: LYP1 Fluorescent Assay using OMFP substrate for In Vitro dose response studies. [Related pubchem assays (depositor defined):AID1779, AID1784, AID435024]
T2 sequence (Q9Y2R2 whole entry): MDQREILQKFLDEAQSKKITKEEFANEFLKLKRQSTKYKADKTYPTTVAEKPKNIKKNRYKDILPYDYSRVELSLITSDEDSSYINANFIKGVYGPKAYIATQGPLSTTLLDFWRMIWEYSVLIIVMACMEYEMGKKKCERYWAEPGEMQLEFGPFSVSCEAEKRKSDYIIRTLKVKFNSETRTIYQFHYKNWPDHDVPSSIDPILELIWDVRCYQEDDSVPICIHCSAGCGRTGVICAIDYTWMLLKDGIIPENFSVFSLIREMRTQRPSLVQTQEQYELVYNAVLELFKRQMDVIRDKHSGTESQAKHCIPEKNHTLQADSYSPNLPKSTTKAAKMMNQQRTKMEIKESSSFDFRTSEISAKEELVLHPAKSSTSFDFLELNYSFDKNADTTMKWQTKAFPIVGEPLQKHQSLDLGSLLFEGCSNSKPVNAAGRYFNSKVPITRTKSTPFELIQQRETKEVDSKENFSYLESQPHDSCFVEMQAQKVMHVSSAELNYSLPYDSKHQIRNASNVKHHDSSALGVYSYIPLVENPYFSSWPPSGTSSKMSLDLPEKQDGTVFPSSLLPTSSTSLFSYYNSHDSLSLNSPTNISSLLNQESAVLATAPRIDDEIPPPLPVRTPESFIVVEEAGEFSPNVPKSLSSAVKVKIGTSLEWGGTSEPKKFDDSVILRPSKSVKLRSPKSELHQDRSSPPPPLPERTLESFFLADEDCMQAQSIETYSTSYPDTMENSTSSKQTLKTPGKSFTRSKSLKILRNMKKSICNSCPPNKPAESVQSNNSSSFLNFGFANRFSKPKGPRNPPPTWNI

[5] = biological target: T2, Tyrosine-protein phosphatase non-receptor type 22; assay: inhibitors of LYP phosphatase, biochemical, fluorescence intensity, uHTS (AID 1779)
[6] = biological target: T2, Tyrosine-protein phosphatase non-receptor type 22; format: functional
[7] = biological target: T2, Tyrosine-protein phosphatase non-receptor type 22; assay: SAR LYP1 Fluorescent Assay using OMFP substrate for In Vitro dose response studies - Set 3. [Related pubchem assays (depositor defined):AID1779, AID1784, AID2140, AID2686]; format: functional

SMILES | EC50 [1] | EC50 [2] | IC50 [3] | IC50 [4] | IC50 [5] | IC50 [6] | IC50 [7]
COc1ccc(Nc2ccc3c(c2)=NC2(CCCCC2)[N+]=3[O-])cc1 | > 120 µM (not active) | 79.5 µM (active) | 6.28 µM (active) | – | – | – | –
COc1ccc(/C=C2\SC(=S)N(CCC(=O)Nc3ccc(C(=O)O)cc3)C2=O)cc1OC | – | – | – | 4.66 µM (active) | 4.29 µM (active) | 3.74 µM (active) | 4.09 µM (active)
